Reference: patent publication US6375961B1, “Cosmetic skin care compositions containing cumic alcohol” (Unilever Home & Personal Care (USA), division of Conopoco, …, priority 1999, dated 2002)

What was measured:
Type in all cases: cell-based
human keratinocytes [1] = assay: Ascorbate uptake assay (14C-ascorbic acid) in keratinocytes
Experimental: Normal human keratinocytes, isolated from neonatal foreskin by trypsin treatment, were grown in Dulbecco's Modified Eagles Medium (DMEM, Life Technologies. Grand Island, New York) with 10% fetal bovine serum in the 10 presence of irradiated mouse fibroblasts for establishing dividing keratinocyte colonies. Cells were incubated until their second passage and stored at -70 ° C. for future use. All incubations took place at 37 ° C. with 5% CO2. Frozen second passage keratinocytes were thawed and plated in T-175 flasks (Corning. Corning, N.Y.) with DMEM and grown for five days. After reaching 80% confluence, they were trypsinized and seeded into 6-well plates containing keratinocyte growth medium (KGM, Clonetics, San Diego, Calif.) with 0.15 mM calcium. For this experiment, third passage keratinocytes were plated into a KGM medium (Clonetics, Calif.) containing 0.15 mM calcium. […] Cells were then switched into fresh KBM and were treated with 5% cumic alcohol administered in corn oil (dosed 10 μl corn oil+active at indicated concentration/2 ml media). After 4 hours of incubation, 0.1 μCi/ml of L-^14C-1-ascorbic acid (Amersham, UK) and 50 units of ascorbic oxidase (Sigma) were added to each well and further incubated for 1 hour. The medium was aspirated and wells were rinsed 3 times with PBS before addition of 500 μl of 0.1N NaOH/well. After 10 minutes of agitation on shaker, 25 μL aliquot was removed for protein analysis, and 200 μl were transferred to scintillation vials containing 5 ml of […]. The counting was performed on a Beckman counter (model LS 5801). Ascorbic acid uptake results were expressed as CPM /μg protein. Concentrations used in the examples below are of cumic alcohol in a corn oil droplet. The in vitro concentration may not be relevant to in vivo concentration because there is partitioning between oil and culture medium and the medium concentration of the active is not The oil droplet concentration of the active. […]

human keratinocytes [2] = assay: Transglutaminase (TG-1) assay in keratinocytes
Experimental: Normal human keratinocytes, isolated from neonatal foreskin by trypsin treatment, were grown in Dulbecco's Modified Eagles Medium (DMEM, Life Technologies. Grand Island, New York) with 10% fetal bovine serum in the 10 presence of irradiated mouse fibroblasts for establishing dividing keratinocyte colonies. Cells were incubated until their second passage and stored at −70 ° C. for future use. All incubations took place at 37 ° C. with 5% CO2. Frozen second passage keratinocytes were thawed and plated in T−175 flasks (Corning. Corning, N.Y.) with DMEM and grown for five days. After reaching 80% confluence, they were trypsinized and seeded into 6-well plates containing keratinocyte growth medium (KGM, Clonetics, San Diego, Calif.) with 0.15 mM calcium. Keratinocytes were placed in KGM (2 ml per well) at 0.2 million cells/plate in 6-well plates and grown for four or five days until the cells reached approximately 20% confluence. […] One set of triplicate wells was left untreated to serve as control. After three days of incubation, cells were washed thoroughly with phosphate buffered saline (PBS, 10 mM sodium phosphate, 138 mM sodium choride, 2.7 mM potassium chloride, pH 7.4) and placed at −70 °C. for 2 hours. Cells were then thawed for two hours. The DNA content of cells was quantified by using the DNA-binding fluorophore, bis-benzimidazole (Hoechst 33258) and measuring the specific fluoroescence of the DNA-bound fluorophore (360 nm excitation, 450 nm emission). Cellular TG-1 levels were determined by using a transglutaminase-1 (TG-1) specific monoclonal antibody as the primary antibody (BC1, Amersham, UK) and a peroxidase labeled rabbit antimouse IgG as the secondary antibody (Amersham, UK). The plates were blocked at room temperature with 5% nonfat milk in Tris-buffered saline (TBS, 10 mM Tris, 150 mM NaCL, pH 8.0) for one hour followed by two hours incubation with the primary antibody (1:4000 dilution) in 1% milk/TBS at room temperature. After rinsing the plates three times with 1% milk/TDS containing […] Tween 20 (Bio-Rad, Hercules, Calif.), the plates were incubated with a 1:4000 dilution of the secondary antibody at room temperature for two hours. The plates were then rinsed three times with 1% milk/0.05% Tween 20/TBS and three times with PBS. Color was developed by incubation with o-phenylene-diamine (Sigma, St. Louis. Mo.) and hydrogen peroxide (Sigma) dissolved in a 1:1 mixture of 0.2 M dibasic sodium phosphate (Sigma) and 0.1 M citric acid at pH 5.0(Sigma). Solutions were transferred to 4 ml plastic cuvets (Fisher Scientific, Pittsburgh Pa.) and the absorbance was read at 492 nm on an Ultraspec 3000 spectrophotometer (Pharmacia, Piscataway N.J.) and TG-1 levels were expressed as absorbence/DNA fluorescence. Concentrations used in the examples below are of cumic alcohol in a corn oil droplet. The in vitro concentration may not be relevant to in vivo concentration because there is partitioning between oil and culture medium and the medium concentration of the active is not The oil droplet concentration of the active. For the cumic alcohol to elicit its effect on the cultured cells, it must diffuse out of the corn oil into the culture medium where it is then accessible to the cells. The cumic alcohol concentration in the culture medium is therefore considerably less than the concentration in the corn oil droplet.

human keratinocytes [3] = assay: Glucose uptake assay (3H 2-deoxy-glucose) in keratinocytes
Experimental: Normal human keratinocytes, isolated from neonatal foreskin by trypsin treatment, were grown in Dulbecco's Modified Eagles Medium (DMEM, Life Technologies. Grand Island, New York) with 10% fetal bovine serum in the 10 presence of irradiated mouse fibroblasts for establishing dividing keratinocyte colonies. Cells were incubated until their second passage and stored at −70 ° C. for future use. All incubations took place at 37 ° C. with 5% CO2. Frozen second passage keratinocytes were thawed and plated in T−175 flasks (Corning. Corning, N.Y.) with DMEM and grown for five days. After reaching 80% confluence, they were trypsinized and seeded into 6-well plates containing keratinocyte growth medium (KGM, Clonetics, San Diego, Calif.) with 0.15 mM calcium. Keratinocytes were plated in KGM medium at either 0.5 or 1 million cells/plate in six well plates and incuoated for 4 days. The medium was then aspirated, and the wells were rinsed twice with Phosphate Buffered Saline (PBS), then the plates were incubated (1 mL/well) for 24 hours. The medium was replaced with fresh KBM, 10 ul of corn oil containing cumic alcohol at various concentrations were added and cells were allowed to incubate (for 4 hours at 37C) before 2 μCi of ^3H 2-deoxy-glucose (Amersham, UK) were added to each well. Samples were then incubated for one hour. The medium was aspirated and wells were rinsed three times with PBS before the addition of 500 μL of 0.1N NaOH/well. After 10 minutes of agitation on a shaker, a 25 μL aliquot was removed for protein analysis, and 200 μL were transferred to a scintillation vial containing 5mL Scintillation cocktail (Scintiverse) and counting was performed on a Beckman counter, ^3H-Glucose uptake results were expressed as CPM/μg protein. Concentrations used in the examples below are of cumic alcohol in a corn oil droplet. The in vitro concentration may not be relevant to in vivo concentration because there is partitioning between oil and culture medium and the medium concentration of the active is not The oil droplet concentration of the active. For the cumic alcohol to elicit its effect on the cultured cells, it must diffuse out of the corn oil into the culture medium where it is then accessible to the cells. The cumic alcohol concentration in the culture medium is therefore considerably less than the concentration in the corn oil droplet.

human keratinocytes [4] = assay: Lipid analysis (ceramides, TLC densitometry) in keratinocytes
[5] = Example 2, Experiment 1, cumic alcohol 2.5% in corn oil
[6] = Example 2, Experiment 1, cumic alcohol 5% in corn oil
[7] = Example 2, Experiment 2, cumic alcohol 2.5% in corn oil
[8] = Example 2, cumic alcohol at 2.5 and 5%
[9] = Example 4, inactivity at lower concentrations

Structure (SMILES): CC(C)c1ccc(CO)cc1 [CUMIC ALCOHOL, p-isopropylbenzyl alcohol]
- ascorbate uptake % of CONTROL (human keratinocytes [1]; cumic alcohol 5% in corn oil): 129%
- ascorbate uptake CPM/WELL (human keratinocytes [1]; cumic alcohol 5% in corn oil (10 ul/2 ml media), 4 h preincubation, 1 h uptake): 17235 +− CPM/WELL
- uptake of ascorbate in comparison to untreated control cells (in words) (human keratinocytes [1]; cumic alcohol at 5% in corn oil): significantly increased uptake
- TG-1 % of CONTROL (human keratinocytes [2]; [5]): 117%
- TG-1 % of CONTROL (human keratinocytes [2]; [6]): 180%
- TG-1 % of CONTROL (human keratinocytes [2]; [7]): 145%
- expression of transglutaminase-1 in comparison to untreated control cells (in words) (human keratinocytes [2]; [8]): increased expression
- TG-1 % of CONTROL (human keratinocytes [2]; Example 4, cumic alcohol 1% in corn oil): 127%
- TG-1 % of CONTROL (human keratinocytes [2]; Example 4, cumic alcohol 2.5% in corn oil): 174%
- TG-1 % of CONTROL (human keratinocytes [2]; Example 4, cumic alcohol 5% in corn oil): 205%
- transglutaminase-1 expression (in words) (human keratinocytes [2]; [9]): significant increase
- glucose uptake % OF CONTROL (human keratinocytes [3]; cumic alcohol 1% in corn oil droplet): 107%
- glucose uptake % OF CONTROL (human keratinocytes [3]; cumic alcohol 2.5% in corn oil droplet): 185%
- glucose uptake % OF CONTROL (human keratinocytes [3]; cumic alcohol 5% in corn oil droplet): 206%
- glucose uptake CPM/ug PROTEIN (human keratinocytes [3]; cumic alcohol 5% in corn oil droplet (10 ul), 4 h preincubation, 1 h uptake): 40.67 CPM/ug PROTEIN
- ceramides % of CONTROL (human keratinocytes [4]; [5]): 67%
- ceramides % of CONTROL (human keratinocytes [4]; [6]): 156%
- ceramides % of CONTROL (human keratinocytes [4]; [7]): 166%
- ceramides % of CONTROL (human keratinocytes [4]; Example 2, Experiment 2, cumic alcohol 5% in corn oil): 185%
- expression of ceramides in comparison to untreated control cells (in words) (human keratinocytes [4]; [8]): increased expression
- ceramide production (in words) (human keratinocytes [4]; [9]): significant increase
